Measurements reported in patent US8461328B2, “Tricyclic heterocyclic compounds, compositions and methods of use thereof” (Genentech, Inc., priority 2010, dated 2013).

Experiments:
Type in all cases: biochemical
JAK1 = target: T1, JAK1 (Homo sapiens, UniProt P23458); assay: JAK1 inhibition (Table 4); conditions: read-out: JAK1 Ki
T1 construct: made in house; host or cells: SF9 insect cells (baculovirus)

JAK2 = target: T2, JAK2 (Homo sapiens, UniProt O60674); assay: JAK2 inhibition (Table 4); conditions: read-out: JAK2 Ki
T2 construct: made in house; host or cells: SF9 insect cells (baculovirus)
T2 sequence (O60674 812-1132): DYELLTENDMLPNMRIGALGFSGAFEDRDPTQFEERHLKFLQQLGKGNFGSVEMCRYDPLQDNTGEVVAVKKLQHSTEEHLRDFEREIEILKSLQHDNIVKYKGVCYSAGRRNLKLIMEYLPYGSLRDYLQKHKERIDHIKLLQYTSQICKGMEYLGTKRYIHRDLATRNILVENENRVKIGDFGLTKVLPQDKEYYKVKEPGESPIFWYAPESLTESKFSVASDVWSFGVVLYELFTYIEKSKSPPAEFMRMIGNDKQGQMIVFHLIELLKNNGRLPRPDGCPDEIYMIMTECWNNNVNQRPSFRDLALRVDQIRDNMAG

JAK3 = target: T3, JAK3 (Homo sapiens, UniProt P52333); assay: JAK3 inhibition (Table 4); conditions: read-out: JAK3 Ki
T3 construct: made in house; host or cells: SF9 insect cells (baculovirus)
T3 sequence (P52333 783-1124): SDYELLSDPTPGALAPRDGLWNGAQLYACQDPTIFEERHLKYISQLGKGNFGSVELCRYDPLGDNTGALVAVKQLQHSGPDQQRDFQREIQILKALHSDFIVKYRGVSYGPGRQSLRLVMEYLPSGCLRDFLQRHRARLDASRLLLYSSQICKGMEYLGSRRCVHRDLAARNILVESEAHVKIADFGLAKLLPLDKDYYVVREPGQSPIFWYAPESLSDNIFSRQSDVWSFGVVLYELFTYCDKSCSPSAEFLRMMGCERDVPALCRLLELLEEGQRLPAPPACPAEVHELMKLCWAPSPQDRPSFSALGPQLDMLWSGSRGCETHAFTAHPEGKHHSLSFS

TYK2 = target: T4, TYK2 (Homo sapiens, UniProt P29597); assay: TYK2 inhibition (Table 4)
T4 construct: made in house; host or cells: SF9 insect cells (baculovirus)
T4 sequence (P29597 873-1187): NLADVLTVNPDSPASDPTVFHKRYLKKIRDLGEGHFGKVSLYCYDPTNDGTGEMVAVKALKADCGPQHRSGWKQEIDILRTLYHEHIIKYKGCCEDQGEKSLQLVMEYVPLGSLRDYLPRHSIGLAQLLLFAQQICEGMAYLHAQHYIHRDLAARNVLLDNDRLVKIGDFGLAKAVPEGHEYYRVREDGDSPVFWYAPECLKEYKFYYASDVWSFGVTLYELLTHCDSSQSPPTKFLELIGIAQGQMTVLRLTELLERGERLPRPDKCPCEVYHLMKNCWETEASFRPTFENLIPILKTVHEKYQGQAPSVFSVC

T1 sequence (P23458 852-1154): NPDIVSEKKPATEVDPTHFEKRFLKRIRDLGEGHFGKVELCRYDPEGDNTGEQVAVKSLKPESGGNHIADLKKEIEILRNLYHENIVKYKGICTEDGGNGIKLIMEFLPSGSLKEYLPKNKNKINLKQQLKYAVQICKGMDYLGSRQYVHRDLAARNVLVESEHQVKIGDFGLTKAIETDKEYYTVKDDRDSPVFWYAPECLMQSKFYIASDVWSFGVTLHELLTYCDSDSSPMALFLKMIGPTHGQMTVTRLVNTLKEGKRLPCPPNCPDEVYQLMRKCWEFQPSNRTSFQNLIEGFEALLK

Ki (JAK1) [nM] | Ki (JAK2) [nM] | Ki (JAK3) [nM] | Ki (TYK2) [nM] | SMILES
2 | 2.36 | 23.4 | 24.9 | CC1CN(Cc2cncnc2)CCC1n1cnc2cnc3[nH]ccc3c21 (racemic) [Example 342, 1-(3-Methyl-1-pyrimidin-5-ylmethyl-piperidin-4-yl)-1,6-dihydro-1,3,5,6-tetraaza-as-indacene]
3.89 | 7.83 | 40.5 | 22.5 | FC(F)(F)CCN1CCC(n2cnc3cnc4[nH]ccc4c32)CC1 [Example 339, 1-[1-(3,3,3-Trifluoro-propyl)-piperidin-4-yl]-1,6-dihydro-1,3,5,6-tetraaza-as-indacene]
6.81 | 8.75 | 46.9 | 63.1 | c1cc2c(ncc3ncn(C4CCN(Cc5cocn5)CC4)c32)[nH]1 [Example 90, 1-(1-Oxazol-4-ylmethyl-piperidin-4-yl)-1,6-dihydro-1,3,5,6-tetraaza-as-indacene]
15.3 | 19 | 120 | 113 | CC(C)(C)OC(=O)N1CCC[C@@H](n2cnc3cnc4[nH]ccc4c32)C1 [Example 349, (R)-3-(6H-1,3,5,6-Tetraaza-as-indacen-1-yl)-piperidine-1-carboxylic acid tert-butyl ester]
16.5 | 30.8 | 37.1 | 234 | c1cncc(CN2CCCC(n3cnc4cnc5[nH]ccc5c43)CC2)c1 (racemic) [Example 487, 1-(1-Pyridin-3-ylmethyl-azepan-4-yl)-1,6-dihydro-1,3,5,6-tetraaza-as-indacene]
4.62 | 10.7 | 69.5 | 91.5 | COCCC(=O)N[C@H]1CC[C@H](n2cnc3cnc4[nH]ccc4c32)CC1 [Example 573, trans 3-Methoxy-N-[4-(6H-1,3,5,6-tetraaza-as-indacen-1-yl)-cyclohexyl]-propionamide]
1.05 | 2.04 | 9.86 | 28.4 | FC(F)(F)c1nc(CN2CCC(n3cnc4cnc5[nH]ccc5c43)CC2)cs1 [Example 295, 1-[1-(2-Trifluoromethyl-thiazol-4-ylmethyl)-piperidin-4-yl]-1,6-dihydro-1,3,5,6-tetraaza-as-indacene]
5.3 | 21.6 | 19.5 | 1360 | c1ccc(CN2CCC(n3c(C4CCC4)nc4cnc5[nH]ccc5c43)CC2)cc1 [Example 325, 1-(1-Benzyl-piperidin-4-yl)-2-cyclobutyl-1,6-dihydro-1,3,5,6-tetraaza-as-indacene]
12.3 | 29.1 | 68.4 | 302 | CC(C)(C)OC(=O)NC1CCCC(n2cnc3cnc4[nH]ccc4c32)C1 (single isomer, unassigned) [Example 476, [3-(6H-1,3,5,6-Tetraaza-as-indacen-1-yl)-cyclohexyl]-carbamic acid tert-butyl ester]
58.9 | 162 | 1240 | 507 | O=C(Cc1ccccc1)N1CC[C@@H](n2cnc3cnc4[nH]ccc4c32)C1 [Example 430, 2-Phenyl-1-[(R)-3-(6H-1,3,5,6-tetraaza-as-indacen-1-yl)-pyrrolidin-1-yl]-ethanone]
47 | 419 | 209 | 1160 | C[C@@H](O)c1nc2cnc3[nH]ccc3c2n1C1CCN(Cc2nccn2C)CC1 [Example 826, (R)-1-{1-[1-(1-Methyl-1H-imidazol-2-ylmethyl)-piperidin-4-yl]-1,6-dihydro-1,3,5,6-tetraaza-as-indacen-2-yl}-ethanol]

The remaining lines, values behind:

SMILES | Ki (JAK1) [nM] | Ki (JAK2) [nM] | Ki (JAK3) [nM] | Ki (TYK2) [nM]
Cc1nc2cnc3[nH]ccc3c2n1C1CC2CCC1O2 (stereo not drawn) [Example 845, exo-2-Methyl-1-(7-oxa-bicyclo[2.2.1]hept-2-yl)-1,6-dihydro-1,3,5,6-tetraaza-as-indacene] | 4.17 | 13.9 | 52.3 | 28.8
N#CCC[C@H]1CC[C@H](n2c(CO)nc3cnc4[nH]ccc4c32)CC1 [Example 646, 3-[4-(2-hydroxymethyl-6H-1,2,3,5,6-tetraaza-as-indacen-1-yl)-cyclohexyl]-propionitrile] | 0.53 | 2.05 | 9.11 | 1.49
Cc1noc(CN2CCC(n3c([C@@H](C)O)nc4cnc5[nH]ccc5c43)CC2)n1 [Example 703, (R)-1-{1-[1-(3-Methyl-[1,2,4]oxadiazol-5-ylmethyl)-piperidin-4-yl]-1,6-dihydro-1,2,3,5,6-tetraaza-as-indacen-2-yl}-ethanol] | 1.97 | 30.1 | 5.01 | 182
Cc1nc2cnc3[nH]ccc3c2n1C1CC2CCC1C2 (stereo not shown) [Example 121a, 1-Bicyclo[2.2.1]hept-2-yl-2-methyl-1,6-dihydro-1,2,3,5,6-tetraaza-as-indacene] | 0.32 | 1.8 | 7.35 | 2.35
CC(CC#N)N1CCC(n2c(C3CCOCC3)nc3cnc4[nH]ccc4c32)CC1 (racemic) [Example 393, 3-{4-[2-(Tetrahydro-pyran-4-yl)-6H-1,3,5,6-tetraaza-as-indacen-1-yl]-piperidin-1-yl}-butyronitrile] | 45.6 | 44.7 | 29.9 | 382
C[C@@H](O)c1nc2cnc3[nH]ccc3c2n1C1CCN(C2(CC#N)COC2)CC1 [Example 861, (3-{4-[2-((R)-1-Hydroxy-ethyl)-6H-1,3,5,6-tetraaza-as-indacen-1-yl]-piperidin-1-yl}-oxetan-3-yl)-acetonitrile] | 39.4 | 205 | 1670 | 602
C[C@@H](O)c1nc2cnc3[nH]ccc3c2n1[C@H]1CC[C@H](N(C)CCC#N)CC1 [Example 616, Trans 3-({4-[2-((R)-1-hydroxy-ethyl)-6H-1,2,3,5,6-tetraaza-as-indacen-1-yl]-cyclohexyl}-methyl-amino)-propionitrile] | 4.49 | 20 | 84.3 | 12.1
C[C@@H](O)c1nc2cnc3[nH]ccc3c2n1C1CCN(CC(F)F)CC1 [Example 916, (R)-1-{1-[1-(2,2-Difluoro-ethyl)-piperidin-4-yl]-1,6-dihydro-1,3,5,6-tetraaza-as-indacen-2-yl}-ethanol] | 6.73 | 52.8 | 63.5 | 78.4
COC(=O)N[C@@H]1CC[C@@H](n2c(C)nc3cnc4[nH]ccc4c32)C1 [Example 735, [(1R,3R)-3-(2-Methyl-6H-1,3,5,6-tetraaza-as-indacen-1-yl)-cyclopentyl]-carbamic acid methyl ester] | 1.52 | 5.67 | 54.6 | 19.2
CC(=O)NCc1nc2cnc3[nH]ccc3c2n1C1CCN(CCF)CC1 [Example 921, N-{1-[1-(2-Fluoro-ethyl)-piperidin-4-yl]-1,6-dihydro-1,3,5,6-tetraaza-as-indacen-2-ylmethyl}-acetamide] | 13.1 | 116 | 70.9 | 191
CO[C@H]1CC[C@H](n2c(CO)nc3cnc4[nH]ccc4c32)CC1 [Example 634, Trans[1-(4-Methoxy-cyclohexyl)-1,6-dihydro-1,2,3,5,6-tetraaza-as-indacen-2-yl]-methanol] | 3.8 | 21.9 | 165 | 4.4
OCc1nc2cnc3[nH]ccc3c2n1C1CCN(CC(F)(F)F)CC1 [Example 761, {1-[1-(2,2,2-Trifluoro-ethyl)-piperidin-4-yl]-1,6-dihydro-1,3,5,6-tetraaza-as-indacen-2-yl}-methanol] | 1.59 | 8.5 | 22.6 | 10
C[C@@H](O)c1nc2cnc3[nH]ccc3c2n1[C@H]1CC[C@H](S(C)(=O)=O)CC1 [Example 650, Trans (R)-1-[1-(4-methanesulfonyl-cyclohexyl)-1,6-dihydro-1,2,3,5,6-tetraaza-as-indacen-2-yl]-ethanol] | 10.5 | 113 | 756 | 52
O=C(Cc1nc2cnc3[nH]ccc3c2n1C1CCCOC1)N1CCSCC1 (racemic) [Example 985, 2-[1-(Tetrahydro-pyran-3-yl)-1,6-dihydro-1,3,5,6-tetraaza-as-indacen-2-yl]-1-thiomorpholin-4-yl-ethanone] | 19.6 | 366 | 146 | 175
N#CCC(=O)N1CCCC(n2c(CC3CC3)nc3cnc4[nH]ccc4c32)C1 (stereo not shown) [Example 676, 3-[3-(2-Cyclopropylmethyl-6H-1,2,3,5,6-tetraaza-as-indacen-1-yl)-piperidin-1-yl]-3-oxo-propionitrile] | 1.36 | 7.87 | 40.2 | 22.1
Cn1cc(CCc2nc3cnc4[nH]ccc4c3n2C2CCN(CCC#N)CC2)cn1 [Example 412, 3-(4-{2-[2-(1-Methyl-1H-pyrazol-4-yl)-ethyl]-6H-1,3,5,6-tetraaza-as-indacen-1-yl}-piperidin-1-yl)-propionitrile] | 21.6 | 78.7 | 125 | 545
c1cc2c(ncc3nnn(C4CCCOC4)c32)[nH]1 (single isomer, unassigned) [Example 460, 1-(Tetrahydro-pyran-3-yl)-1,6-dihydro-1,2,3,5,6-pentaaza-as-indacene] | 8.36 | 17.3 | 313 | 76.5
